What follows are compounds tested against T1, BTK enzyme (recombinant full-length BTK, hBTK) (Homo sapiens, UniProt Q06187) (assay: Btk enzyme activity assay, LANCE TR-FRET). Details: 50 pM hBTK, 2 μM biotin-A5-peptide, 25 μM ATP; 60 minute compound & enzyme incubation; 120 minutes reaction; read-out: BTK binding potency IC50.
T1 construct: recombinant protein from baculovirus-transfected Sf9 cells: full-length BTK, 6HIS-tag cleaved; 6HIS (cleaved yes); made in house; host or cells: baculovirus-transfected Sf9 cells
T1 sequence (Q06187 whole entry): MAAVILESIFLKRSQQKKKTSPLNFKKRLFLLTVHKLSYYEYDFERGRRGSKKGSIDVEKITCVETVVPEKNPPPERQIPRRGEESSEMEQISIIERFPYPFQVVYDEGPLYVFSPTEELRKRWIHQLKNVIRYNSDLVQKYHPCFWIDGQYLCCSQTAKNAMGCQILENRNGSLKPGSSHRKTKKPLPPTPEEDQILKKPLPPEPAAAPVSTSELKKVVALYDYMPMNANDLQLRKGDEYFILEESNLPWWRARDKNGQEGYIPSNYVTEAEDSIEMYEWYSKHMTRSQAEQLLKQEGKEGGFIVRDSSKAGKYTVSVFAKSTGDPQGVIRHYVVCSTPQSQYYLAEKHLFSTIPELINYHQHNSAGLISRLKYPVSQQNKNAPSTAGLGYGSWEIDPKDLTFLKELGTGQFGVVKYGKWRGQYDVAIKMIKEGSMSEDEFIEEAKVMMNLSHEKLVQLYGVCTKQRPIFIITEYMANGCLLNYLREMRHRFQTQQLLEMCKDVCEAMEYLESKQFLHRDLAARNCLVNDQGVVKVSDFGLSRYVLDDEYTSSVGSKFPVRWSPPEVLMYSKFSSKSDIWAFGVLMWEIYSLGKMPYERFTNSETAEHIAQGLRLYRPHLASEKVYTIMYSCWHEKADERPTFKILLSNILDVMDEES
Type: biochemical
Procedure: Btk Enzyme Activity Assay Methods
BTK enzymatic activity was determined with the LANCE (Lanthanide Chelate Excite) TR-FRET (lime-resolved fluorescence resonance energy transfer) assay. […] Phosphorylation reactions were allowed to proceed for 120 minutes. […] After 60 minutes incubation with detection reagents, reaction plates were read on a PerkinElmer EnVision plate reader using standard TR-FRET protocol. Briefly, excitation of donor molecules (Eu-chelate:anti-phospho-antibody) with a laser light source at 337 nm produces energy that can be transferred to Dylight-650 acceptor molecules if this donor:acceptor pair is within close proximity. Fluorescence intensity at both 665 nm (acceptor) and 615 nm (donor) are measured and a TR-FRET ratio calculated for each well (acceptor intensity/donor intensity). IC50 values were determined by 4 parameter robust fit of TR-FRET ratio values vs. (Log10) compound concentrations.

SMILES | IC50 [nM]
NC(=O)c1cnc(N2CCCC3(CCN(c4ccc(F)cc4)C3=O)C2)c2c1[nH]c1ccccc12 (stereo not shown) [Example 32, 1-[2-(4-fluorophenyl)-1-oxo-2,7-diazaspiro[4.5]dec-7-yl]-5H-pyrido[4,3-b]indole-4-carboxamide] | 244
CC(C)(O)CN1CCC(c2ccc3c(c2)[nH]c2c(C(N)=O)cnc(N4CCC[C@@]5(CCNC5=O)C4)c23)CC1 [Example 72, 7-[1-(2-hydroxy-2-methylpropyl)piperidin-4-yl]-1-[(5R)-1-oxo-2,7-diazaspiro[4.5]dec-7-yl]-5H-pyrido[4,3-b]indole-4-carboxamide] | 0.63
NC(=O)c1cnc(N2CCC3(CCNCC3)C2)c2c1[nH]c1ccccc12 [Example 15, 1-(2,8-diazaspiro[4.5]dec-2-yl)-5H-pyrido[4,3-b]indole-4-carboxamide] | 37.4
CS(=O)(=O)N1CCC(c2ccc3c(c2)[nH]c2c(C(N)=O)cnc(N4CCCC5(CCNC5=O)C4)c23)CC1 (stereo not shown) [Example 57, 7-[1-(methylsulfonyl)piperidin-4-yl]-1-(1-oxo-2,7-diazaspiro[4.5]dec-7-yl)-5H-pyrido[4,3-b]indole-4-carboxamide] | 2.1
CN1CC(CO)C2(CCCN(c3ncc(C(N)=O)c4[nH]c5ccccc5c34)C2)C1=O (single isomer, unassigned) [Example 90, cis-1-(4-(hydroxymethyl)-2-methyl-1-oxo-2,7-diazaspiro[4.5]decan-7-yl)-5H-pyrido[4,3-b]indole-4-carboxamide] | 115
CC(C)(O)CN1CCC(c2ccc3[nH]c4c(C(N)=O)cnc(N5CCCC6(CCNC6=O)C5)c4c3c2)CC1 (stereo not shown) [Example 62, 8-[1-(2-hydroxy-2-methylpropyl)piperidin-4-yl]-1-(1-oxo-2,7-diazaspiro[4.5]dec-7-yl)-5H-pyrido[4,3-b]indole-4-carboxamide] | 59.7
NC(=O)c1cnc(N2CCC3(CCNC3=O)CC2)c2c1[nH]c1ccccc12 [Example 11, 1-(1-oxo-2,8-diazaspiro[4.5]dec-8-yl)-5H-pyrido[4,3-b]indole-4-carboxamide] | 31.1
NC(=O)c1cnc(N2CCC[C@]3(CCCN(c4ccc(F)cc4)C3=O)C2)c2c1[nH]c1ccc(F)cc12 [Example 7, 8-fluoro-1-[(6S)-8-(4-fluorophenyl)-7-oxo-2,8-diazaspiro[5.5]undec-2-yl]-5H-pyrido[4,3-b]indole-4-carboxamide] | 34.2
NC(=O)c1cnc(N2CCCC3(CCNC3=O)C2)c2c1[nH]c1ccc(C3CCN(CC(=O)O)CC3)cc12 (stereo not shown) [Example 48, {4-[4-carbamoyl-1-(1-oxo-2,7-diazaspiro[4.5]dec-7-yl)-5H-pyrido[4,3-b]indol-8-yl]piperidin-1-yl}acetic acid] | 47.6
CC(=O)N1CC2(CCCN(c3ncc(C(N)=O)c4[nH]c5ccccc5c34)C2)C1 [Example 29, 1-(2-acetyl-2,6-diazaspiro[3.5]non-6-yl)-5H-pyrido[4,3-b]indole-4-carboxamide] | 271
NC(=O)c1cnc(N2CCCC3(CCNC3=O)C2)c2c1[nH]c1ccc(C(O)CO)cc12 (stereo not shown) [Example 65, 8-(1,2-dihydroxyethyl)-1-(1-oxo-2,7-diazaspiro[4.5]dec-7-yl)-5H-pyrido[4,3-b]indole-4-carboxamide] | 16.5
CN1CCC(c2ccc3c(c2)[nH]c2c(C(N)=O)cnc(N4CCCC5(CCNC5=O)C4)c23)CC1 (stereo not shown) [Example 55, 7-(1-methylpiperidin-4-yl)-1-(1-oxo-2,7-diazaspiro[4.5]dec-7-yl)-5H-pyrido[4,3-b]indole-4-carboxamide] | 1.3
CCN1CCC(c2ccc3[nH]c4c(C(N)=O)cnc(N5CCCC6(CCNC6=O)C5)c4c3c2)CC1 (stereo not shown) [Example 49, 8-(1-ethylpiperidin-4-yl)-1-(1-oxo-2,7-diazaspiro[4.5]dec-7-yl)-5H-pyrido[4,3-b]indole-4-carboxamide] | 87.3
NC(=O)c1cnc(N2CCC3(CC2)CNC(=O)C3)c2c1[nH]c1ccccc12 [Example 10, 1-(3-oxo-2,8-diazaspiro[4.5]dec-8-yl)-5H-pyrido[4,3-b]indole-4-carboxamide] | 19.4
CC(C)N1CCC(c2ccc3c(c2)[nH]c2c(C(N)=O)cnc(N4CCC[C@@]5(CCN(C)C5=O)C4)c23)CC1 [Example 76, 7-[1-(1-methylethyl)piperidin-4-yl]-1-[(5R)-2-methyl-1-oxo-2,7-diazaspiro[4.5]dec-7-yl]-5H-pyrido[4,3-b]indole-4-carboxamide] | 0.64
NC(=O)c1cnc(N2CCC[C@@]3(CCCN(c4ccc(F)cc4)C3=O)C2)c2c1[nH]c1ccccc12 [Example 1, (R)-1-(8-(4-fluorophenyl)-7-oxo-2,8-diazaspiro[5.5]undecan-2-yl)-5H-pyrido[4,3-b]indole-4-carboxamide] | 149
NC(=O)c1cnc(N2CCCC3(CCNC3=O)C2)c2c1[nH]c1ccc(C3CCNCC3)cc12 (stereo not shown) [Example 45, 1-(1-oxo-2,7-diazaspiro[4.5]dec-7-yl)-8-piperidin-4-yl-5H-pyrido[4,3-b]indole-4-carboxamide] | 204
CC(C)(C)OC(=O)N1CC2(CCN(c3ncc(C(N)=O)c4[nH]c5ccccc5c34)CC2)C1 [Example 16, tert-butyl 7-(4-carbamoyl-5H-pyrido[4,3-b]indol-1-yl)-2,7-diazaspiro[3.5]nonane-2-carboxylate] | 98.7
CN1CC[C@@]2(CCCN(c3ncc(C(N)=O)c4[nH]c5cc(-c6ccc(C(O)C(F)(F)F)cc6)ccc5c34)C2)C1=O (stereo partly drawn) [Example 78, 1-[(5R)-2-methyl-1-oxo-2,7-diazaspiro[4.5]dec-7-yl]-7-[4-(2,2,2-trifluoro-1-hydroxyethyl)phenyl]-5H-pyrido[4,3-b]indole-4-carboxamide] | 59.9
NC(=O)c1cnc(N2CCCC3(CCNC3=O)C2)c2c1[nH]c1ccc(C(=O)O)cc12 (stereo not shown) [Example 84, 4-carbamoyl-1-(1-oxo-2,7-diazaspiro[4.5]dec-7-yl)-5H-pyrido[4,3-b]indole-8-carboxylic acid] | 48.8
CN1C[C@@H](CO)[C@@]2(CCCN(c3ncc(C(N)=O)c4[nH]c5ccccc5c34)C2)C1=O (racemic) [Example 92, trans-1-(4-(hydroxymethyl)-2-methyl-1-oxo-2,7-diazaspiro[4.5]decan-7-yl)-5H-pyrido[4,3-b]indole-4-carboxamide] | 64
CC(=O)N1CCC(c2ccc3[nH]c4c(C(N)=O)cnc(N5CCCC6(CCNC6=O)C5)c4c3c2)CC1 (stereo not shown) [Example 61, 8-(1-acetylpiperidin-4-yl)-1-(1-oxo-2,7-diazaspiro[4.5]dec-7-yl)-5H-pyrido[4,3-b]indole-4-carboxamide] | 81.8
CN1CC[C@@]2(CCCN(c3ncc(C(N)=O)c4[nH]c5cc(C6CCN(CC(C)(C)O)CC6)ccc5c34)C2)C1=O [Example 77, 7-[1-(2-hydroxy-2-methylpropyl)piperidin-4-yl]-1-[(5R)-2-methyl-1-oxo-2,7-diazaspiro[4.5]dec-7-yl]-5H-pyrido[4,3-b]indole-4-carboxamide] | 0.55
CNC(=O)N1CCC(c2ccc3c(c2)[nH]c2c(C(N)=O)cnc(N4CCCC5(CCNC5=O)C4)c23)CC1 (stereo not shown) [Example 53, 7-[1-(methylcarbamoyl)piperidin-4-yl]-1-(1-oxo-2,7-diazaspiro[4.5]dec-7-yl)-5H-pyrido[4,3-b]indole-4-carboxamide] | 1.4

Same assay, conditions: BTK binding potency IC50 (nM), 50 pM hBTK, 2 μM biotin-A5-peptide, 25 μM ATP; 60 minute compound & enzyme incubation; 120 minutes reaction

SMILES | IC50 [nM]
NC(=O)c1cnc(N2CCCC3(CCNC3=O)C2)c2c1[nH]c1ccccc12 (stereo not shown) [Example 34, 1-(1-oxo-2,7-diazaspiro[4.5]dec-7-yl)-5H-pyrido[4,3-b]indole-4-carboxamide] | 17.2
